In one assay the test system is NIH3T3. As to the kind of experiment: Antiproliferative activity against mouse NIH3T3 cells assessed as cell growth inhibition incubated for 24 to 72 hrs by CCK-8 assay. Type of assay: functional, cell-based.
Assay [1] is filed under the species Mus musculus. As to the kind of experiment: Antifibrotic activity against bleomycin-induced C57BL/6 mouse lung fibrosis model assessed as reduction in CD11c+MHC II+ in dendritic cells in lung incubated for 30 mins by flow cytometry analysis ( Rvb = 23.67 %). The class given is functional. Also noted: scale not given: the % may be the effect or the level left. The conditions noted are these: 0.5 h. In general terms: In flow cytometry, cells or beads pass a laser one at a time.

The species named for assay [2] is Mus musculus. The assay can be described thus: Antifibrotic activity against bleomycin-induced C57BL/6 mouse lung fibrosis model assessed as reduction in CD4-CD69+ T cell in lung incubated for 30 mins by flow cytometry analysis ( Rvb = 6.54%). The conditions noted are these: 0.5 h. The class given is functional. More on the design: scale not given: the % may be the effect or the level left.

The species named for assay [3] is Mus musculus. As to the kind of experiment: Antifibrotic activity against bleomycin-induced C57BL/6 mouse lung fibrosis model assessed as reduction in F4/80+CD11b+ macrophage in lung incubated for 30 mins by flow cytometry analysis ( Rvb = 17.96%). Type of assay: functional. Also noted: scale not given: the % may be the effect or the level left. The conditions noted are these: 0.5 h.

In assay [4] the test system is A549. As to the kind of experiment: Inhibition of cell migration in TGF-beta1 induced human A549 cells measured for 24 hrs by contrast-phase microscopic analysis. The class given is functional, cell-based.
Assay [5] concerns A549. The assay can be described thus: Induction of morphological changes in TGF-beta1 induced human A549 cells assessed as appearance of spindle shape cells at 200 nM measured for 24 hrs by phase contrast microscopy analysis. Type of assay: functional, cell-based.

Structures are written as SMILES. Calls of active or inactive are those of the source. No cut-off for these calls is given here.

By IC50 is commonly meant the concentration at which inhibition is half-maximal. With `O=C(C1=Cc2ccccc2S1(=O)=O)N1CCN(Cc2ccc(S(=O)(=O)C(F)(F)F)cc2)CC1`, in the assay with NIH3T3, the IC50 came out at 1790 nM.

For the compound `O=C(C1=Cc2ccccc2S1(=O)=O)N1CCN(S(=O)(=O)c2ccc3ccccc3c2)CC1`, in the assay with NIH3T3, the IC50 is > 10000 nM.

For `O=C(C1=Cc2ccccc2S1(=O)=O)N1CCN(S(=O)(=O)c2ccc3c(c2)CCO3)CC1`, in the assay with NIH3T3, the IC50 amounted to 8890 nM.

In the case of `O=C(C1=Cc2ccccc2S1(=O)=O)N1CCN(Cc2ccc(-c3ccccc3)cc2)CC1`, the IC50 in the assay with NIH3T3 worked out at 6470 nM.

Consider `O=C(NC1CCN(C(=O)C2=Cc3ccccc3S2(=O)=O)CC1)c1cccc(Cl)c1`, for which, in the assay with NIH3T3, the IC50 was 6760 nM.

`O=C(C1=Cc2ccccc2S1(=O)=O)N1CCN(C(=O)c2ccc(N3CCOCC3)nc2)CC1`: the IC50 in the assay with NIH3T3 turned out to be 2490 nM.

Turning to `O=C(CN1CCOCC1)NC1CCN(C(=O)C2=Cc3ccccc3S2(=O)=O)CC1`, in the assay on NIH3T3, the IC50 worked out at 4850 nM.

As to `O=C(C1=Cc2ccccc2S1(=O)=O)N1CCN(Cc2c(F)c(F)c(F)c(F)c2F)CC1`, the IC50 in the assay with NIH3T3 stood at 1290 nM.

On to `Cc1cccc(CN2CCN(C(=O)C3=Cc4ccccc4S3(=O)=O)CC2)c1`, for which, in the assay with NIH3T3, the IC50 came to 2550 nM.

Turning to `O=C(C1=Cc2ccccc2S1(=O)=O)N1CCN(C(=O)c2cc3ccccc3o2)CC1`, the IC50 in the assay on NIH3T3 turned out to be 1220 nM.

With `O=C(C1=Cc2ccccc2S1(=O)=O)N1CCN(Cc2cccc(C(F)(F)F)c2)CC1`, in the assay on NIH3T3, the IC50 amounted to 1320 nM.

`COC(=O)c1ccc(CN2CCN(C(=O)C3=Cc4ccccc4S3(=O)=O)CC2)cc1`: in the assay on NIH3T3, the IC50 came to 630 nM.

On to `COC(=O)c1sccc1S(=O)(=O)N1CCN(C(=O)C2=Cc3ccccc3S2(=O)=O)CC1`, for which, in the assay on NIH3T3, the half-inhibitory concentration (IC50) was 4480 nM.

Consider `O=C(C1=Cc2ccccc2S1(=O)=O)N1CCN(C(=O)c2cccnc2N2CCOCC2)CC1`, for which the IC50 in the assay with NIH3T3 stood at 3420 nM.

For `O=C(CC1CCCCC1)NC1CCN(C(=O)C2=Cc3ccccc3S2(=O)=O)CC1`, the 50% inhibitory concentration (IC50) in the assay on NIH3T3 was > 10000 nM.

`COc1cc(CN2CCN(C(=O)C3=Cc4ccccc4S3(=O)=O)CC2)cc(OC)c1`: the IC50 in the assay with NIH3T3 was found to be 1110 nM.

For `CC(C)(C)OC(=O)n1cc(CN2CCN(C(=O)C3=Cc4ccccc4S3(=O)=O)CC2)c2ccccc21`, the IC50 in the assay on NIH3T3 was 5120 nM.

Take `O=C(C1=Cc2ccccc2S1(=O)=O)N1CCN(S(=O)(=O)c2cc(F)cc(F)c2)CC1`: in the assay with NIH3T3, the half-maximal inhibitory concentration (IC50) stood at 1450 nM.

On to `Cc1noc(C)c1S(=O)(=O)N1CCN(C(=O)C2=Cc3ccccc3S2(=O)=O)CC1`, for which the IC50 in the assay with NIH3T3 was 1470 nM.

Regarding `Cc1nc(C)c(C(=O)NC2CCN(C(=O)C3=Cc4ccccc4S3(=O)=O)CC2)nc1C`, the IC50 in the assay on NIH3T3 was determined as 2130 nM.

For the compound `COS(=O)(=O)c1ccc(CN2CCN(C(=O)C3=Cc4ccccc4S3(=O)=O)CC2)cc1`, the IC50 with NIH3T3 turned out to be 930 nM.

In the case of `O=C(C1=Cc2ccccc2S1(=O)=O)N1CCN(Cc2cc(F)c(F)c(F)c2F)CC1`, the IC50 in the assay on NIH3T3 turned out to be 1260 nM.

For `COC(=O)c1ccc(CN2CCN(C(=O)C3=Cc4ccccc4S3(=O)=O)CC2)cc1OC`, in the assay on NIH3T3, the IC50 worked out at 1240 nM.

As to `O=C(C1=Cc2ccccc2S1(=O)=O)N1CCN(Cc2ccc3ccccc3c2)CC1`, the IC50 in the assay with NIH3T3 was 6780 nM.

On to `O=C(Cc1cccc([N+](=O)[O-])c1)NC1CCN(C(=O)C2=Cc3ccccc3S2(=O)=O)CC1`, for which the IC50 in the assay on NIH3T3 is > 10000 nM.

For `O=C(C1=Cc2ccccc2S1(=O)=O)N1CCN(C(=O)c2scnc2Br)CC1`, the IC50 in the assay with NIH3T3 was 810 nM.

`O=C(C1=Cc2ccccc2S1(=O)=O)N1CCN(Cc2ccccc2F)CC1`: the IC50 in the assay on NIH3T3 came to 1000 nM.

With `COc1ccc(CN2CCN(C(=O)C3=Cc4ccccc4S3(=O)=O)CC2)cc1`, the IC50 with NIH3T3 stood at 1780 nM.

`O=C(C1=Cc2ccccc2S1(=O)=O)N1CCN(C(=O)c2cccnc2)CC1`: in the assay with NIH3T3, the IC50 was 8450 nM.

Turning to `O=C(C1=Cc2ccccc2S1(=O)=O)N1CCN(C(=O)c2ccc(F)cn2)CC1`, the IC50 with NIH3T3 is 2090 nM.

Regarding `COC(=O)c1ccc2c(c1)NC(=O)/C2=C(\Nc1ccc(N(C)C(=O)CN2CCN(C)CC2)cc1)c1ccccc1` [NINTEDANIB], the figures for the Activity in the assay listed under Mus musculus [1], in the assay filed under Mus musculus [2] and in the assay listed under Mus musculus [3] were 20.61%, 3.55% and 12.36%, respectively. The IC50 in the assay with NIH3T3 was 2410 nM.

In the case of `O=C(C1=Cc2ccccc2S1(=O)=O)N1CCN(Cc2ccc(Cl)cc2)CC1`, the IC50 in the assay with NIH3T3 stood at 2010 nM.

With `O=C(C1=Cc2ccccc2S1(=O)=O)N1CCN(Cc2ccc(C(F)(F)F)o2)CC1`, the IC50 with NIH3T3 came out at 1900 nM.

In the case of `O=C(NC1CCN(C(=O)C2=Cc3ccccc3S2(=O)=O)CC1)c1ccc(Cl)cc1`, in the assay with NIH3T3, the IC50 amounted to 6260 nM.

For `O=C(Cc1ccccc1[N+](=O)[O-])NC1CCN(C(=O)C2=Cc3ccccc3S2(=O)=O)CC1`, the IC50 in the assay with NIH3T3 was > 10000 nM.

Turning to `O=C(C1=Cc2ccccc2S1(=O)=O)N1CCN(Cc2ccc(C(F)(F)F)cc2)CC1`, in the assay on NIH3T3, the IC50 was 1460 nM.

Consider `O=C(C1=Cc2ccccc2S1(=O)=O)N1CCN(C(=O)c2ccccn2)CC1`, for which the IC50 in the assay on NIH3T3 came to 6020 nM.

For the compound `Cc1ccc(CN2CCN(C(=O)C3=Cc4ccccc4S3(=O)=O)CC2)cc1`, the IC50 in the assay on NIH3T3 was 1660 nM.

For the compound `O=C(CC1CCCC1)NC1CCN(C(=O)C2=Cc3ccccc3S2(=O)=O)CC1`, in the assay with NIH3T3, the IC50 is > 10000 nM.

Consider `COC(=O)c1cccc(CN2CCN(C(=O)C3=Cc4ccccc4S3(=O)=O)CC2)c1`, for which the IC50 with NIH3T3 is 1400 nM.

As for `O=C(C1=Cc2ccccc2S1(=O)=O)N1CCN(Cc2cccc(F)c2)CC1`, in the assay with NIH3T3, the IC50 came out at 950 nM.

Turning to `O=C(C1=Cc2ccccc2S1(=O)=O)N1CCN(S(=O)(=O)c2cccs2)CC1`, the IC50 with NIH3T3 was 3870 nM.

Turning to `O=C(C1=Cc2ccccc2S1(=O)=O)N1CCN(S(=O)(=O)C2CCCCC2)CC1`, the IC50 in the assay with NIH3T3 came out at 8920 nM.

As for `O=C(C1=Cc2ccccc2S1(=O)=O)N1CCN(C(=O)c2cc(F)c(F)cc2F)CC1`, the IC50 in the assay with NIH3T3 amounted to 870 nM.

In the case of `O=C(Cc1cccc2c1CCO2)NC1CCN(C(=O)C2=Cc3ccccc3S2(=O)=O)CC1`, the IC50 in the assay on NIH3T3 stood at 3980 nM.

With `CN(C)c1ccc(CC(=O)NC2CCN(C(=O)C3=Cc4ccccc4S3(=O)=O)CC2)cc1`, the IC50 in the assay on NIH3T3 was > 10000 nM.

With `O=C(Cc1cccc(C2CC2)c1)N1CCN(C(=O)C2=Cc3ccccc3S2(=O)=O)CC1`, in the assay with NIH3T3, the IC50 turned out to be 1750 nM.

For the compound `CC(C)(C)OC(=O)N1CCOC(C(=O)N2CCN(C(=O)C3=Cc4ccccc4S3(=O)=O)CC2)C1` (centres undefined), in the assay with NIH3T3, the IC50 was 5230 nM.

As for `O=[N+]([O-])c1ccc2c(c1)S(=O)(=O)C=C2`, the IC50 in the assay with NIH3T3 was 1180 nM. Moreover, the inhibition entry in the assay on A549 [4] was “Active”. Also, the result in the assay on A549 [5] was Active.

For the origin of these results see ChEMBL document CHEMBL5352461, “Discovery of the novel Benzo[b]thiophene 1,1-dioxide derivatives as a potent STAT3 inhibitor against idiopathic pulmonary fibrosis” (Eur J Med Chem, 2023).
